US8871756B2 (Hoffmann-La Roche Inc., priority 2011, dated 2014)

system: RSV Long strain; assay: Viral cytopathic effect (CPE) assay, anti-RSV activity; format: cell-based, Respiratory Syncytial Virus; conditions: RSV Long strain (ATCC); cell viability after 6 days, Cell Counting kit-8
Summary of the method: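 EC50 was derived from CCK-8 viability at 450/630 nm measured 6 days post-infection. Infection used enough RSV Long strain for approximately 80–90% cytopathic effect, in the presence of half-log serially diluted compound. Cells were plated the day before at 6×10^3 per well in DMEM/10% FBS.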

For Cc1ccc2nc(N3CC[S+]([O-])c4ccccc4C3)nc(NCC3(CN)COC3)c2c1 (single isomer, unassigned; (-)) [Example 62-2], the EC50 was 0.0017 µM.

same assay, conditions: human respiratory syncytial virus, 144 h, RSV Long strain (ATCC); cell viability after 6 days, Cell Counting kit-8

NCCCNc1cc(N2CCS(=O)(=O)c3ccccc3C2)nc2ccc(C(F)F)cc12 [Example 9-29, N-[6-(Difluoromethyl)-2-(1,1-dioxido-2,3-dihydro-1,4-benzothiazepin-4(5H)-yl)quinolin-4-yl]propane-1,3-diamine] and NCCCNc1cc(N2CCS(=O)(=O)c3ccccc3C2)nc2ccc(Br)cc12 [Example 9-34, N-[6-Bromo-2-(1,1-dioxido-2,3-dihydro-1,4-benzothiazepin-4(5H)-yl)quinolin-4-yl]propane-1,3-diamine] are the same in EC50: 0.024 µM for the first, 0.024 µM for the second.

Cc1ccc2nc(N3Cc4ccccc4S(=O)(=O)C(C)C3)cc(NCC3(N)COC3)c2c1 (stereo not shown) [Example 69-2, N-[(3-Aminooxetan-3-yl)methyl]-6-methyl-2-(2-methyl-1,1-dioxido-2,3-dihydro-1,4-benzothiazepin-4(5H)-yl)quinolin-4-amine] and Cc1ccc2nc(N3CCS(=O)(=O)c4ccccc4C3)cc(NCC3(N)CCCCC3)c2c1 [Example 2-11, N-[(1-Aminocyclohexyl)methyl]-2-(1,1-dioxido-2,3-dihydro-1,4-benzothiazepin-4(5H)-yl)-6-methylquinolin-4-amine] are within 1.5-fold of each other in EC50: 0.007 µM for the first, 0.008 µM for the second.

Going from Cc1ccc2nc(N3CCS(=O)(=O)c4ccccc4C3)cc(NCC(C)O)c2c1 (stereo not shown) [Example 5-7, 1-{[2-(1,1-Dioxido-2,3-dihydro-1,4-benzothiazepin-4(5H)-yl)-6-methylquinolin-4-yl]amino}propan-2-ol] to Cc1ccc2nc(N3CCS(=O)(=O)c4ccccc4C3)cc(NC[C@H](N)CO)c2c1 [Example 37-1, (2S)-2-Amino-3-{[2-(1,1-dioxido-2,3-dihydro-1,4-benzothiazepin-4(5H)-yl)-6-methylquinolin-4-yl]amino}propan-1-ol], the EC50 falls from 0.941 µM to 0.005 µM (190-fold). The second is the more potent here.

Going from Cc1ccc2nc(N3CCS(=O)(=O)c4ccccc4C3)cc(N[C@H]3CC[C@H](O)CC3)c2c1 [Example 8-1, trans-4-{[2-(1,1-Dioxido-2,3-dihydro-1,4-benzothiazepin-4(5H)-yl)-6-methylquinolin-4-yl]amino}cyclohexanol] to Cc1ccc2nc(N3CCS(=O)(=O)c4ccccc4C3)cc(NCCN)c2c1 [Example 9-16, N-[2-(1,1-Dioxido-2,3-dihydro-1,4-benzothiazepin-4(5H)-yl)-6-methylquinolin-4-yl]ethane-1,2-diamine], the EC50 falls from 5.51 µM to 0.005 µM (1100-fold).

First: NCCNc1cc(N2CCS(=O)(=O)c3ccccc3C2)nc2ccc(CO)cc12 [Example 10, {4-[(2-Aminoethyl)amino]-2-(1,1-dioxido-2,3-dihydro-1,4-benzothiazepin-4(5H)-yl)quinolin-6-yl}methanol]
Second: NCCNc1cc(N2CCS(=O)(=O)c3ccccc3C2)nc2ccc(N)cc12 [Example 85, N^˜4^˜-(2-Aminoethyl)-2-(1,1-dioxido-2,3-dihydro-1,4-benzothiazepin-4(5H)-yl)quinoline-4,6-diamine]
The EC50 of the first is 2.7-fold lower: 0.003 µM for the first, 0.008 µM for the second.

Compared with NCC1(CNc2nc(N3CCS(=O)(=O)c4ccccc4C3)nc3ccc(C(=O)O)cc23)COC1 [Example 108-2, 4-({[3-(Aminomethyl)oxetan-3-yl]methyl}amino)-2-(1,1-dioxido-2,3-dihydro-1,4-benzothiazepin-4(5H)-yl)quinazoline-6-carboxylic acid], Cc1ccc2nc(N3CCS(=O)(=O)c4ccccc4C3)cc(NCCC(=O)O)c2c1 [Example 14-2, N-[2-(1,1-Dioxido-2,3-dihydro-1,4-benzothiazepin-4(5H)-yl)-6-methylquinolin-4-1]-beta-alanine] is 3.6-fold higher in EC50: 2.47 µM for the first, 8.79 µM for the second.

First: Cc1ccc2nc(N3CCS(=O)(=O)c4ccccc4C3)cc(N3C[C@@H](O)[C@@H](N)C3)c2c1 (relative stereo) [Example 13, cis-4-amino-1-[2-(1,1-Dioxido-2,3-dihydro-1,4-benzothiazepin-4(5H)-yl)-6-methylquinolin-4-yl]pyrrolidin-3-ol]
Second: Cc1ccc2nc(N3CCS(=O)(=O)c4ccccc4C3)cc(N3C[C@@H](N)[C@H](F)C3)c2c1 (relative stereo) [Example 78-2, trans-1-[2-(1,1-Dioxido-2,3-dihydro-1,4-benzothiazepin-4(5H)-yl)-6-methylquinolin-4-yl]-4-fluoropyrrolidin-3-amine]
The EC50 of the first is 9.6-fold lower: 0.026 µM for the first, 0.25 µM for the second. The first is the more potent here.

First: N[C@@H]1CN(c2cc(N3CCS(=O)(=O)c4ccccc4C3)nc3ccc(Cl)cc23)C[C@H]1F (relative stereo) [Example 19-5, trans-1-[6-Chloro-2-(1,1-dioxido-2,3-dihydro-1,4-benzothiazepin-4(5H)-yl)quinolin-4-yl]-4-fluoropyrrolidin-3-amine]
Second: NCCNc1cc(N2CCS(=O)(=O)c3ccccc3C2)nc2ccc(Cl)cc12 [Example 3-46, N-[6-Chloro-2-(1,1-dioxido-2,3-dihydro-1,4-benzothiazepin-4(5H)-yl)quinolin-4-yl]ethane-1,2-diamine]
The EC50 of the first is 58-fold higher: 3.07 µM for the first, 0.053 µM for the second.

First: Cc1ccc2nc(N3CCS(=O)(=O)c4ccccc4C3)cc(N3CCN(C)CC3)c2c1 [Example 5-6, 4-[6-Methyl-4-(4-methylpiperazin-1-yl)quinolin-2-yl]-2,3,4,5-tetrahydro-1,4-benzothiazepine 1,1-dioxide]
Second: Cc1ccc2nc(N3CCS(=O)(=O)c4ccccc4C3)cc(N3CCC(C)(O)C3)c2c1 (stereo not shown) [Example 3-45, 1-[2-(1,1-Dioxido-2,3-dihydro-1,4-benzothiazepin-4(5H)-yl)-6-methylquinolin-4-yl]-3-methylpyrrolidin-3-ol]
The EC50 of the first is 2.5-fold lower: 2.06 µM for the first, 5.23 µM for the second.

Compared with Cc1ccc2nc(N3CC[S+]([O-])c4ccccc4C3)nc(N[C@@H]3CNC[C@H]3F)c2c1 (relative stereo) [Example 92-1, N-(trans-4-Fluoropyrrolidin-3-yl)-6-methyl-2-(1-oxido-2,3-dihydro-1,4-benzothiazepin-4(5H)-yl)quinazolin-4-amine], Cc1ccc2nc(N3CC[S+]([O-])c4ccccc4C3)nc(N3C[C@@H](N)[C@H](F)C3)c2c1 (relative stereo) [Example 62-7, trans-4-Fluoro-1-[6-methyl-2-(1-oxido-2,3-dihydro-1,4-benzothiazepin-4(5H)-yl)quinazolin-4-yl]pyrrolidin-3-amine] is 21-fold higher in EC50: 0.009 µM for the first, 0.186 µM for the second.

Compared with Cc1cc2c(NCCO)cc(N3CCS(=O)(=O)c4ccccc4C3)nc2cc1F [Example 9-23, 2-{[2-(1,1-Dioxido-2,3-dihydro-1,4-benzothiazepin-4(5H)-yl)-7-fluoro-6-methylquinolin-4-yl]amino}ethanol], Cc1ccc2c(NCCCN)cc(N3CCS(=O)(=O)c4ccccc4C3)nc2c1 [Example 17-7, N-[2-(1,1-Dioxido-2,3-dihydro-1,4-benzothiazepin-4(5H)-yl)-7-methylquinolin-4-yl]propane-1,3-diamine] is 4.7-fold lower in EC50: 3.02 µM for the first, 0.642 µM for the second. The second is the more potent here.

Going from NCCNc1cc(N2CCCc3ccccc3C2)nc2c(Cl)cccc12 [Example 118-20, N-[8-Chloro-2-(1,3,4,5-tetrahydro-2H-2-benzazepin-2-yl)quinolin-4-yl]ethane-1,2-diamine] to Cc1ccc2nc(N3CCS(=N)(=O)c4ccccc4C3)cc(NCCN)c2c1 (stereo not shown) [Example 76, N-[2-(1-Imino-1-oxido-1,2,3,5-tetrahydro-4H-1lambda˜4˜,4-benzothiazepin-4-yl)-6-methylquinolin-4-yl]ethane-1,2-diamine], the EC50 falls from 1.13 µM to 0.006 µM (190-fold). The second is the more potent here.

Compared with Cc1ccc2nc(N3CC[S+]([O-])c4ccccc4C3)nc(NCC3(NCc4ccccc4)COC3)c2c1 (stereo not shown) [Example 55-2, N-{[3-(Benzylamino)oxetan-3-yl]methyl}-6-methyl-2-(1-oxido-2,3-dihydro-1,4-benzothiazepin-4(5H)-yl)quinazolin-4-amine], NCC1(CNc2cc(N3CC[S+]([O-])c4ccccc4C3)nc3ccc(Cl)cc23)COC1 (stereo not shown) [Example 18-9, N-{[3-(Aminomethyl)oxetan-3-yl]methyl}-6-chloro-2-(1-oxido-2,3-dihydro-1,4-benzothiazepin-4(5H)-yl)quinolin-4-amine] is 40-fold lower in EC50: 0.202 µM for the first, 0.005 µM for the second. The second is the more potent here.

Cc1ccc2nc(N3CCS(=O)(=O)c4ccccc4C3)cc(Nc3ccc(N)cc3)c2c1 [Example 15-2, N-[2-(1,1-Dioxido-2,3-dihydro-1,4-benzothiazepin-4(5H)-yl)-6-methylquinolin-4-yl]benzene-1,4-diamine] and Cc1ccc2nc(N3CCS(=O)(=O)c4ccccc4C3)cc(Nc3cc[nH]n3)c2c1 [Example 47-3, 2-(1,1-Dioxido-2,3-dihydro-1,4-benzothiazepin-4(5H)-yl)-6-methyl-N-(1H-pyrazol-3-yl)quinolin-4-amine] are within 1.5-fold of each other in EC50: 7.99 µM for the first, 5.69 µM for the second.

First: Cc1ccc2nc(N3CCS(=O)(=O)c4ccccc4C3)cc(NCCCCCCCCN)c2c1 [Example 12-5, N-[2-(1,1-Dioxido-2,3-dihydro-1,4-benzothiazepin-4(5H)-yl)-6-methylquinolin-4-yl]octane-1,8-diamine]
Second: Cc1cccc2c(NCCCCCCCCN)cc(N3CCS(=O)(=O)c4ccccc4C3)nc12 [Example 12-7, N-[2-(1,1-Dioxido-2,3-dihydro-1,4-benzothiazepin-4(5H)-yl)-8-methylquinolin-4-yl]octane-1,8-diamine]
The EC50 of the first is 2-fold higher: 0.448 µM for the first, 0.226 µM for the second.

Cc1ccc2nc(N3CCS(=O)(=O)c4ccccc4C3)cc(CCCN)c2c1 [Example 96, 3-[2-(1,1-Dioxido-2,3-dihydro-1,4-benzothiazepin-4(5H)-yl)-6-methylquinolin-4-yl]propan-1-amine] and Cc1ccc2nc(N3CCC(F)(F)c4ccccc4C3)cc(N3CCN(C)CC3)c2c1 [Example 110-13, 5,5-Difluoro-2-[6-methyl-4-(4-methylpiperazin-1-yl)quinolin-2-yl]-2,3,4,5-tetrahydro-1H-2-benzazepine] are within 1.5-fold of each other in EC50: 2.83 µM for the first, 3.68 µM for the second.

For Cc1ccc2nc(N3CCC(F)(F)c4ccccc4C3)nc(NCC3(CN)CSC3)c2c1 [Example 114-2, N-{[3-(Aminomethyl)thietan-3-yl]methyl}-2-(5,5-difluoro-1,3,4,5-tetrahydro-2H-2-benzazepin-2-yl)-6-methylquinazolin-4-amine], the EC50 was 0.975 µM.
